Experimental data reported in publication PMC12495443, “Developing inhibitors of the guanosine triphosphate hydrolysis accelerating activity of Regulator of G protein Signaling-14 [drawing 1]” (The Journal of Biological Chemistry, 2025).

Target: T1, cysteine-less RGS12 RGS-box protein (Homo sapiens, UniProt O14924, C701S/C748S/C775S/C831S)
T1 construct: human RGS12 RGS-box (aa 695–843 of UniProt O14924); host or cells: E. coli
T1 sequence (O14924 695-843 C701S/C748S/C775S/C831S): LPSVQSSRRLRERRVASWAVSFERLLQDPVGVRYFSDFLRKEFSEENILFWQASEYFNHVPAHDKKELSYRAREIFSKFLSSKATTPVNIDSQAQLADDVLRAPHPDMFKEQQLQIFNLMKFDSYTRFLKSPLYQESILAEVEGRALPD
Assay: Transcreener GDP RGScreen assay with cysteine-less RGS12 RGS-box
Assay type: biochemical
Details: range given jointly for cysteine-less RGS14 and RGS12 proteins; read-out: estimated IC50, cysteine-less RGS12 RGS-box
Excerpt: Given the earlier experience with screening hit CCG-4986 being a covalent modifier of RGS4 cysteine residues ([35]), we sought to exclude protein-thiol reactivity as a potential mechanism of action of the active compounds derived from the AtomNet virtual screening effort ([55]) and SAR campaign follow-ups. To address this possibility and screen out thiol-reactive hits, cysteine-lacking versions of recombinant proteins spanning the RGS-boxes of RGS14 and RGS12 were purified from E. coli cultures.
Reagents and protocols for the fluorescence anisotropy-based Transcreener GDP RGScreen assay using a rate-altered, double point-mutant, recombinant Gαi1 protein have been extensively described previously ([43], [44]); reactions were always performed so that total GTP converted over the time course was consistently less than 10% of reaction maximum input. […] Open-reading frames (ORFs) encoding wild-type versions of the human RGS14 RGS-box (aa 46–195 of UniProt O43566) and human RGS12 RGS-box (aa 695–843 of UniProt O14924) were each sub-cloned in-frame with an N-terminal hexahistidine (His6) expression tag in the plasmid pET30a, expressed in E. coli cultures, and then purified by nickel-nitriloacetate (Ni-NTA) and size-exclusion (Superdex 200) column chromatographies by GenScript using previously described methods ([35]). […]

Work on `COc1ccc(OCc2nnc3n2N=C(c2ccc(OC)c(OC)c2)CS3)cc1` [Z55660043, 6-(3,4-dimethoxyphenyl)-3-[(4-methoxy-phenoxy)methyl]-5H-[1,2,4]triazolo[3,4-b][1,3,4]thiadiazine] yielded an IC50 of 10 to 19 µM.
